Measurements as given in patent US12630529B2, “GCN2 modulator compounds” (ALESTA THERAPEUTICS BV, priority 2020, dated 2026).

Experiments:
[1] = molecular target: GCN2 (Homo sapiens, UniProt Q9P2K8); assay: GCN2 enzyme inhibition assay (Reaction Biology EIF2AK4/GCN2 kinase assay); type: biochemical; design: purchased Reaction Biology Corp; conditions: human GCN2 enzyme activity, 10 μM ATP, 20 μM peptide substrate
Procedure: In order to validate the above results, human GCN2 enzyme activity was measured in Reaction Biology Corp (EIF2AK4/GCN2 kinase assay). Compounds were tested in 5-dose IC50 mode for non-active compounds and 10-dose IC50 mode for active compounds with 3-fold serial dilution starting at 30 μM and 0.1 μM respectively. Control compound Staurosporine was tested in 10-dose IC50 mode with 4-fold serial dilution starting at 20 μM. Reactions were carried out at 10 μM ATP using 20 μM peptide substrate [GRSRSRSRSR]. For IC50 values: +++ refers to <10 nM of test compound; ++ refers to 10 nM to 100 nM of test compound; + refers to 100 nM to 1,000 nM of test compound and − refers to >1,000 nM of test compound.

[2] = tested on: HT29 cells; assay: Growth of tumor spheroids; type: cell-based; conditions: 64 μM arginine, up to 120 hours, vs untreated spheroids
Procedure: The growth of tumor spheroids was evaluated following treatment of cells with Compound 1, Compound 2 and Compound 108. Briefly, HT29 cells were seeded at 5,000 cells/well in ultra-low attachment round bottom 96-well plates, in 100 μL SILAC DMEM Flex media without phenol red, supplemented with 10% fetal bovine serum (FBS), 1 g/L glucose, 2 mM glutamine, 220 μM lysine, and 64 μM arginine. The plates were centrifuged for 10 minutes at 125×g and put in a humidified incubator at 37° C. for 3 days before the onset of the experiment to allow spheroids to form.
Three days after seeding, 10 μM Compound 1, 10 μM Compound 2, 10 μM Compound 108 or 10 μM vehicle control (0.1% DMSO), were added together with 100 nM fluorescent apoptosis stain (e.g., YO-PRO™-1 Iodide; Thermo Fisher) to detect apoptotic cells and Nuclear-ID Red DNA Stain (1:100,000; ENZO Life Sciences) to detect live cells. Plates were placed in a live-cell imaging and analysis platform (e.g., IncuCyte ZOOM®; Essenbio) set up in a humidified incubator at 37° C. and scanned every 4 hours for up 120 hours, at 10× magnification, to determine relative spheroid size and cell death. Experiments were performed in quadruplicate and analyzed using live-cell imaging and analysis software (e.g., IncuCyte ZOOM® 2018A software; Essenbio).

GCN2, sequence (Q9P2K8 whole entry): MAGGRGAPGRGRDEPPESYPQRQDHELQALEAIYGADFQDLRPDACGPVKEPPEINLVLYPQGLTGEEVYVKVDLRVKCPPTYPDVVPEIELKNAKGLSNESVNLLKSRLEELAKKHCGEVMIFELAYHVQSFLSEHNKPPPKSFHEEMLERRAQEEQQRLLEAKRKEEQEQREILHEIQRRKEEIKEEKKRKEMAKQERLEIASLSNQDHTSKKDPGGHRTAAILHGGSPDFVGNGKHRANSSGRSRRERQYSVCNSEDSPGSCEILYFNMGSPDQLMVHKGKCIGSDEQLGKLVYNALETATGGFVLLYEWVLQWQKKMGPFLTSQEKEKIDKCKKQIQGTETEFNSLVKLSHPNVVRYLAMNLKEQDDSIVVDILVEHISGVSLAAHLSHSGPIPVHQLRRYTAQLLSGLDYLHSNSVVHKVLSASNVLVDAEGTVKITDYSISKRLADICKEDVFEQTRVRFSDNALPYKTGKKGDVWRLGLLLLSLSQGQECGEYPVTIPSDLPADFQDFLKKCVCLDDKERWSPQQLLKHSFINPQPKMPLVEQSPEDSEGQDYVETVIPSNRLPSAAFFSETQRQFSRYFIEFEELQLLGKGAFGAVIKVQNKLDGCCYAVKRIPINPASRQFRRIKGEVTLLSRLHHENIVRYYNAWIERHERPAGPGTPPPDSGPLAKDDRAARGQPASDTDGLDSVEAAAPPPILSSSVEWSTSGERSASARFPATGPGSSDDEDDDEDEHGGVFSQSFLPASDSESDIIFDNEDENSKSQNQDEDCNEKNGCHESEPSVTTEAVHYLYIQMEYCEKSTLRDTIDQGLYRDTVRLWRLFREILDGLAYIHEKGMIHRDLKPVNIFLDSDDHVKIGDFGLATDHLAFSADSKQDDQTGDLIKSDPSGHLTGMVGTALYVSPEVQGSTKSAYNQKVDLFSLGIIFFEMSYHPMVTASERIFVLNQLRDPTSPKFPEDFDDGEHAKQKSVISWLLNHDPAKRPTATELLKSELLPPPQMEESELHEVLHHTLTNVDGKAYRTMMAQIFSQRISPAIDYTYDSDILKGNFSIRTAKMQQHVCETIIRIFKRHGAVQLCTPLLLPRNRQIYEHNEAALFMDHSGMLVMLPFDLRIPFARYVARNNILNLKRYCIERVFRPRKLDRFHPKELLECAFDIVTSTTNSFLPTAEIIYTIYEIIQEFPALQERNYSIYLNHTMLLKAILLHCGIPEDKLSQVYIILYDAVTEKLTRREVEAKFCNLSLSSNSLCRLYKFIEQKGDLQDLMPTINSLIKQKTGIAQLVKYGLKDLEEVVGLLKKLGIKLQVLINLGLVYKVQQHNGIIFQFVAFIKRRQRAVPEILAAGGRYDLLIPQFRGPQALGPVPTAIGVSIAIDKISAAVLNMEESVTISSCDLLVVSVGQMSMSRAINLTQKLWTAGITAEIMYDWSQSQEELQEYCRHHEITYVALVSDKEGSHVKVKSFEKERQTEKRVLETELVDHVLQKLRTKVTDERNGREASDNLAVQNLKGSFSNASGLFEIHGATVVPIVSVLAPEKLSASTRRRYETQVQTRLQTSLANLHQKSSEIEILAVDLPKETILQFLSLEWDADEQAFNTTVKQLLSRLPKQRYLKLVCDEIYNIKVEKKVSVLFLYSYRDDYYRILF

Structure (SMILES)	IC50 [1] [nM]	spheroid size and viability [2]
COc1ncc(Cl)cc1S(=O)(=O)Nc1ccc(F)c(-c2ccc3nc(N)ncc3c2)c1F [Compound 1]	10 to 100	relative reduction in spheroid size and viability in a dose-dependent manner
Nc1ncc2cc(-c3c(F)ccc(NS(=O)(=O)c4cc(Cl)ccc4Cl)c3F)ccc2n1 [Compound 2]	< 10	relative reduction in spheroid size and viability in a dose-dependent manner
